Measurements reported in paper PMC5433425 (PeerJ, 2017).
Several values for one entry are separate records, joined by “and”; a condition that tells them apart may be missing. Identical values can stand only once. Like-named read-outs stand apart in the source and are kept apart here.

Tests used:
[1] = system: E. coli AG100A; settings: EtBr […] + inhibitor 20 µM
[2] = system: E. coli AG100A (AcrAB pump-deficient); assay: MIC, broth microdilution; type: cell-based, Escherichia coli
[3] = system: E. coli AG100tet; assay: microbe, parasite or virus in culture; type: cell-based, Escherichia coli; settings: AG100tet
Method: The assays were performed in triplicate and the MIC value was given as result of at least two concordant values.

[4] = system: E. coli AG100; assay: EtBr efflux by real-time fluorometry; settings: for EtBr fluorescence (Channel Cycling A.530/585hp): 80 µM, + glucose
Method: Control tubes with only cells and cells with and without 0.4% glucose were included. The fluorescence was measured in a Rotor-Gene 3000 and the data was acquired every 30 s for 30 min at 37 °C. The efflux activity was quantified by comparing the fluorescence data obtained under conditions that promote efflux (presence of glucose and absence of efflux inhibitor) with the data from the control in which the bacteria are under conditions of no efflux (presence of an inhibitor and no energy source).

[5] = system: E. coli AG100tet (AcrAB overexpressing); assay: MIC, broth microdilution; type: cell-based, Escherichia coli; settings: E. coli AG100tet
[6] = system: E. coli AG100; assay: Membrane permeability assay (Live/Dead BacLight); settings: for BacLight Live/Dead fluorescence 485/20,528/20 / BacLight Live/Dead fluorescence 485/20,590/35: raw well reading

Question: What does the source list for `CCCOc1ccc(-c2cc(OCCN3CCNCC3)c3ccccc3n2)cc1` [PQQ4R, 4-(2-(piperazin-1-yl)ethoxy)-2-(4-propoxyphenyl) quinolone]?
Answer: EtBr fluorescence ([1]; cycle 1): 3.005; EtBr fluorescence ([1]; cycle 2): 3.689; EtBr fluorescence ([1]; cycle 3): 4.425; EtBr fluorescence ([1]; cycle 4): 5.09; EtBr fluorescence ([1]; cycle 5): 5.663; EtBr fluorescence ([1]; cycle 6): 6.261; EtBr fluorescence ([1]; cycle 7): 6.784; EtBr fluorescence ([1]; cycle 8): 7.347; EtBr fluorescence ([1]; cycle 9): 7.957; EtBr fluorescence ([1]; cycle 10): 8.552; EtBr fluorescence ([1]; cycle 11): 9.107; EtBr fluorescence ([1]; cycle 12): 9.505; EtBr fluorescence ([1]; cycle 13): 10.1469; EtBr fluorescence ([1]; cycle 14): 10.666; EtBr fluorescence ([1]; cycle 15): 11.2994; EtBr fluorescence ([1]; cycle 16): 11.7134; EtBr fluorescence ([1]; cycle 17): 12.3988; EtBr fluorescence ([1]; cycle 18): 12.7522; EtBr fluorescence ([1]; cycle 19): 13.174; EtBr fluorescence ([1]; cycle 20): 13.8181; EtBr fluorescence ([1]; cycle 21): 14.2909; EtBr fluorescence ([1]; cycle 22): 14.7163; EtBr fluorescence ([1]; cycle 23): 15.2505; EtBr fluorescence ([1]; cycle 24): 16.0503; EtBr fluorescence ([1]; cycle 25): 16.1642; EtBr fluorescence ([1]; cycle 26): 16.8061; EtBr fluorescence ([1]; cycle 27): 17.3806; EtBr fluorescence ([1]; cycle 28): 17.8352; EtBr fluorescence ([1]; cycle 29): 18.1109; EtBr fluorescence ([1]; cycle 30): 18.6334; MIC decrease against AG100A compared with wild-type parental strain ([2]; AG100A vs AG100): 8 fold; MIC ([2]; E. coli AG100A): 32 μg/ml and 81.7 μM; MIC of EtBr in presence of the efflux inhibitor ([3]; inhibitor 40 μM): 512 µg/mL; MIC of OFX in presence of the efflux inhibitor ([3]; inhibitor 40 μM): 0.5 µg/mL; MIC of OXA in presence of the efflux inhibitor ([3]; inhibitor 40 μM): >2,048 μg/ml; MIC of TET in presence of the efflux inhibitor ([3]; inhibitor 40 μM): 16 µg/mL; MIC of EtBr in presence of the efflux inhibitor ([3]; inhibitor 80 μM): 512 µg/mL; MIC of OFX in presence of the efflux inhibitor ([3]; inhibitor 80 μM): 0.25 µg/mL; MIC of OXA in presence of the efflux inhibitor ([3]; inhibitor 80 μM): 2,048 μg/ml; MIC of TET in presence of the efflux inhibitor ([3]; inhibitor 80 μM): 16 µg/mL; MIC of EtBr in presence of the efflux inhibitor ([3]; inhibitor 160 μM): 512 µg/mL; MIC of OFX in presence of the efflux inhibitor ([3]; inhibitor 160 μM): 0.25 µg/mL; MIC of OXA in presence of the efflux inhibitor ([3]; inhibitor 160 μM): 2,048 μg/ml; MIC of TET in presence of the efflux inhibitor ([3]; inhibitor 160 μM): 16 µg/mL; decrease in OFX MIC ([3]; inhibitor 80 and 160 µM): 4 fold; decrease in TET MIC ([3]; inhibitor 80 and 160 µM): 4 fold; inhibition of EtBr efflux ([4]; AG100, AG100A and AG100tet (Fig. 2), 80 μM (20 μM for AG100A), glucose, 37 °C): inhibited; EtBr fluorescence (Channel Cycling A.530/585hp) ([4]; cycle 1): 14.1835; EtBr fluorescence (Channel Cycling A.530/585hp) ([4]; cycle 2): 12.9442; EtBr fluorescence (Channel Cycling A.530/585hp) ([4]; cycle 3): 12.1458; EtBr fluorescence (Channel Cycling A.530/585hp) ([4]; cycle 9): 9.004; EtBr fluorescence (Channel Cycling A.530/585hp) ([4]; cycle 10): 8.5432; EtBr fluorescence (Channel Cycling A.530/585hp) ([4]; cycle 11): 8.357; EtBr fluorescence (Channel Cycling A.530/585hp) ([4]; cycle 12): 8.087; EtBr fluorescence (Channel Cycling A.530/585hp) ([4]; cycle 13): 7.737; EtBr fluorescence (Channel Cycling A.530/585hp) ([4]; cycle 14): 7.571; EtBr fluorescence (Channel Cycling A.530/585hp) ([4]; cycle 15): 7.486; EtBr fluorescence (Channel Cycling A.530/585hp) ([4]; cycle 16): 7.363; EtBr fluorescence (Channel Cycling A.530/585hp) ([4]; cycle 17): 7.106; EtBr fluorescence (Channel Cycling A.530/585hp) ([4]; cycle 18): 6.949; EtBr fluorescence (Channel Cycling A.530/585hp) ([4]; cycle 19): 6.811; EtBr fluorescence (Channel Cycling A.530/585hp) ([4]; cycle 20): 6.647; EtBr fluorescence (Channel Cycling A.530/585hp) ([4]; cycle 21): 6.6451; EtBr fluorescence (Channel Cycling A.530/585hp) ([4]; cycle 22): 6.375; EtBr fluorescence (Channel Cycling A.530/585hp) ([4]; cycle 23): 6.294; EtBr fluorescence (Channel Cycling A.530/585hp) ([4]; cycle 24): 6.27; EtBr fluorescence (Channel Cycling A.530/585hp) ([4]; cycle 25): 6.171; EtBr fluorescence (Channel Cycling A.530/585hp) ([4]; cycle 26): 6.0708; EtBr fluorescence (Channel Cycling A.530/585hp) ([4]; cycle 27): 5.906; EtBr fluorescence (Channel Cycling A.530/585hp) ([4]; cycle 28): 5.869; EtBr fluorescence (Channel Cycling A.530/585hp) ([4]; cycle 29): 5.816; EtBr fluorescence (Channel Cycling A.530/585hp) ([4]; cycle 30): 5.711; EtBr fluorescence (Channel Cycling A.530/585hp) ([4]; cycle 31): 5.67; EtBr fluorescence (Channel Cycling A.530/585hp) ([4]; cycle 32): 5.576; EtBr fluorescence (Channel Cycling A.530/585hp) ([4]; cycle 33): 5.469; EtBr fluorescence (Channel Cycling A.530/585hp) ([4]; cycle 34): 5.4; EtBr fluorescence (Channel Cycling A.530/585hp) ([4]; cycle 35): 5.309; EtBr fluorescence (Channel Cycling A.530/585hp) ([4]; cycle 36): 5.284; EtBr fluorescence (Channel Cycling A.530/585hp) ([4]; cycle 37): 5.241; EtBr fluorescence (Channel Cycling A.530/585hp) ([4]; cycle 38): 5.208; EtBr fluorescence (Channel Cycling A.530/585hp) ([4]; cycle 39): 5.097; EtBr fluorescence (Channel Cycling A.530/585hp) ([4]; cycle 40): 5.016; EtBr fluorescence (Channel Cycling A.530/585hp) ([4]; cycle 41): 5.035; EtBr fluorescence (Channel Cycling A.530/585hp) ([4]; cycle 42): 4.981; EtBr fluorescence (Channel Cycling A.530/585hp) ([4]; cycle 43): 4.838; EtBr fluorescence (Channel Cycling A.530/585hp) ([4]; cycle 44): 4.747; MIC [5]: >653.9 µM; BacLight Live/Dead fluorescence 485/20,528/20 ([6]; 80 uM): 153 and 118; BacLight Live/Dead fluorescence 485/20,590/35 ([6]; 80 uM): 38 and 30; BacLight Live/Dead fluorescence 485/20,528/20 ([6]; 160 uM): 278 and 253; BacLight Live/Dead fluorescence 485/20,590/35 ([6]; 160 uM): 85 and 82; BacLight Live/Dead fluorescence 485/20,528/20 ([6]; 320 uM): 277 and 252; BacLight Live/Dead fluorescence 485/20,590/35 ([6]; 320 uM): 87 and 78; BacLight Live/Dead fluorescence 485/20,528/20 ([6]; 640 uM): 160 and 178; BacLight Live/Dead fluorescence 485/20,590/35 ([6]; 640 uM): 79 and 82; membrane permeability increase / membrane permeation ([6]; AG100, 80 µM): 4%; effect on cell membrane integrity ([6]; AG100, 80 µM (≈1/8 MIC), 1 h): did not alter; membrane permeation ([6]; AG100, 160 μM (1/4 MIC)): 22%; membrane permeation ([6]; AG100, 320 μM (1/2 MIC)): 28%; membrane permeation ([6]; AG100, 640 μM (MIC)): 50%; reduction of membrane integrity ([6]; AG100, half MIC, 1 h): 28%
